Test results reported in the NIST ThermoML archive (doi:10.1016/j.jct.2010.12.022).
Where “and” joins values, the source holds several entries; their conditions need not be identical. Equal values may be shown once.

Details: Crystal, Calculated from knudsen effusion weight loss

c1ccc2cc3ccccc3cc2c1 [anthracene]
Details	vapor or sublimation pressure
323.31 K	2.21e-05 kPa
327.16 K	3.51e-05 kPa
331.27 K	5.47e-05 kPa
335.32 K	8.42e-05 kPa
339.31 K	0.00013 kPa
343.32 K	0.000197 kPa
347.26 K	0.000281 kPa
347.33 K	0.000289 kPa
351.27 K	0.00043 kPa
351.33 K	0.000426 kPa and 0.000424 kPa
355.26 K	0.000604 kPa
355.33 K	0.000634 kPa
357.34 K	0.000783 kPa
359.26 K	0.000876 kPa
359.33 K	0.000945 kPa
363.34 K	0.001374 kPa
367.27 K	0.001898 kPa
367.35 K	0.001967 kPa
371.35 K	0.002859 kPa
375.36 K	0.004145 kPa

c1ccc(-c2cc(-c3ccccc3)cc(-c3ccccc3)c2)cc1 [1,3,5-triphenylbenzene]
Details	vapor or sublimation pressure
404.34 K	9.95e-05 kPa
405.34 K	0.0001076 kPa
407.27 K	0.000136 kPa
408.34 K	0.0001462 kPa
408.35 K	0.0001487 kPa
410.36 K	0.0001809 kPa
412.35 K	0.0002238 kPa and 0.0002202 kPa
413.28 K	0.000252 kPa
414.37 K	0.0002718 kPa
416.35 K	0.0003305 kPa
416.37 K	0.0003361 kPa
418.28 K	0.000412 kPa
418.39 K	0.000405 kPa
420.36 K	0.0004929 kPa
420.39 K	0.0005004 kPa
422.41 K	0.000601 kPa
423.28 K	0.000671 kPa
424.37 K	0.000729 kPa
424.42 K	0.0007385 kPa
426.43 K	0.0008947 kPa
428.29 K	0.001087 kPa
428.38 K	0.00108 kPa
428.45 K	0.001096 kPa

O=C1c2ccccc2-c2cccc3cccc1c23 [7H-benz[de]anthracen-7-one]
Details	vapor or sublimation pressure [kPa]
388.22 K	0.0001308
389.22 K	0.0001419
390.22 K	0.0001594
391.22 K	0.0001742
392.19 K	0.0001926
392.22 K	0.0001937
393.23 K	0.0002126
394.2 K	0.000232
394.23 K	0.0002331
395.24 K	0.0002574
396.2 K	0.0002786
396.23 K	0.0002797
397.24 K	0.0003067
398.2 K	0.0003364
398.23 K	0.0003376
399.24 K	0.0003702
400.21 K	0.0004108
400.24 K	0.000412
401.24 K	0.0004472
402.21 K	0.0004911
402.24 K	0.0004922
403.25 K	0.000532
404.21 K	0.0005813
406.21 K	0.0007014
408.22 K	0.0008383
